Laboratory results as given in patent publication US8182794B2, “Sunless tanning products and processes” (Concept Laboratories, priority 2003, dated 2012).
Entries after “also recorded” stand apart in the source; their conditions may differ.

What follows are compounds tested on human skin (assay: Colorimeter (Minolta CR-10) L* a* b* readings of sunless tan on forearm skin). Details: 5% additive with 5% DHA and 5% MSM; Table 1 series.
Type: in vivo
Experimental: An equal amount of each formula solution (approximately 150 mg.) from Table 1 was applied to 2″×2″ adjacent sections of forearm, allowed to dry and covered with clothing for the duration of the testing. The application areas were visibly the same color prior to treatment with the solutions and this was confirmed via calorimeter readings. Readings were typically made 24-48 hours post application of the test solutions. Three calorimeter readings were made of each treatment area with a Minolta CR-10 adapted for human skin readings and the readings were averaged. All eight formulas shown in Table 1 were evaluated on several individuals with Fitzpatrick skin types I-III. Although the absolute values for the tanning responses differed between individuals, the relative differences between formulations in terms of tanning response were the same. Typical results of the testing of one subject were recorded in average L* a* b* color values and are shown in Table 2 along with baseline skin color. […]
The results shown in Table 12 were confirmed by several repeat experiments conducted on several relatively light-skin individuals (Fitzpatrick Type I-III). The data are based on calculation of the average increase in skin darkening based on skin color changes measured by the colorimeter “L” or light-dark value [(Δ L)]; the average increase in skin hue intensity measured simultaneously by both the colorimeter “a*” or red value and the colorimeter “b*” or yellow value (Δ√a^2+b^2); and, the average increase in total tan which adds the changes in darkness and hue increases [(Δ L)+Δ√a^2+b^2].

Row | SMILES | effect of additive on tanning response of DHA and MSM
1 | CC(O)CO (stereo not drawn) [propylene glycol] | darker tanning responses
2 | CCCC(O)CO (stereo not drawn) [pentylene glycol, 1,2-pentanediol] | darker tanning responses; also recorded: significantly increase
3 | OCCCCO [butylene glycol] | darker tanning responses; also recorded: significantly increase
